# Results published in patent US10973801B2, “Capsid assembly modulator dosing regimen” (Janssen Sciences Ireland Unlimited Company, priority 2018, dated 2021).
# “And” between values parts separate entries of the source, which are not always exact repeats. Identical values can stand only once. “Also recorded” adds a separate entry of the source. Like-named read-outs stand apart in the source and are kept apart here. Marks after values point to notes of the source that are not given here.
# Tests used:
# [1] = Adverse events over 28-day treatment in treatment naïve chronic hepatitis B patients; assay type: in vivo, human; conditions: for Amylase Increased (most common AEs) / At least one AE (on-treatment, 28 days) / Headache (most common AEs) / Worst Grade 1 AEs / Worst Grade 2 AEs / Worst Grade 3 AEs: n = 8
# Excerpt: In part 2 of this study (FIG. 1, sessions 8-9), the objective was to evaluate the safety, PK, and antiviral activity of Compound A in treatment naïve, chronic hepatitis B patients over a 28-day treatment period. The patient criteria were: • HBeAg-positive or negative • Plasma HBV DNA>2.0 log 10 IU/mL • ALT/AST<2.5×ULN • METAVIR stage<F3. […] Although no patients had Grade 3 or 4 AEs on treatment, one patient had Grade 1 & 2 ALT and Grade 1 AST elevations on treatment that rose to Grade 3 & 4 ALT and Grade 3 AST elevations in follow up.
# [2] = Oral bioavailability of Compound A 25-mg and 100-mg oral tablets, fasted and fed, in healthy adult subjects; assay type: in vivo, human; conditions: for Tmax: read-out: tmax (median)
# Description: The primary objectives were to evaluate the oral bioavailability of Compound A when administered as single dose of 150 mg, composed of 6×25-mg oral tablets, under fasted and fed conditions, and as single dose of 300 mg, composed of 3×100-mg oral tablets, under fasted conditions in healthy adult subjects Part I was conducted to assess the bioavailability of new 25 mg oral tablets of Compound A under fasted and fed conditions, and of new 100 mg oral tablets of Compound A under fasted conditions, in healthy adult subjects. In Treatment Period 1 of Part I, all 16 subjects received a single 150 mg dose (6×25 mg oral tablets) under fed conditions (Treatment A). Thereafter, subjects were randomly assigned to either Arm 1 or Arm 2 in a 1:1 ratio. In Arm 1, subjects received a single 150 mg dose (6×25 mg oral tablets) under fasted conditions in Treatment Period 2 (Treatment B). In Arm 2, subjects received a single 300 mg dose (3×100 mg oral tablets) under fasted conditions in Treatment Period 2 (Treatment C). Full pharmacokinetic (PK) profiles of Compound A were determined over approximately 768 hours […] after Compound A administration on Day 1 of each treatment period. Safety and tolerability were assessed throughout the study. In Part I, 16 healthy adult subjects were included. After Treatment A (150 mg Compound A, fed) in Treatment Period 1, subjects were randomly assigned to either Arm 1 (n=8; Treatment B [150 mg Compound A, fasted]) or Arm 2 (Treatment C [[…]; 300 mg Compound A, fasted]) in a 1:1 ratio in Treatment Period 2. Fifteen subjects completed study participation in Part I, but all 16 subjects were included in the PK and safety analyses. […] Subjects had to be healthy on the basis of medical and surgical history, physical examination, 12 lead electrocardiogram (ECG), vital signs, and clinical laboratory tests performed at screening. Male and female subjects had to adhere to the contraceptive requirements as specified in the protocol. The study consisted of a screening phase, an admission phase, a treatment phase, and a follow-up phase (posttreatment phase). During the follow-up phase, subjects returned to the study site 10-14 days and 30-35 days after study drug administration in the last treatment period for a follow-up visit. The duration of each treatment phase was 33±3 days and the study duration per individual subject was at least 61 days (including admission and follow-up period), screening period not included.
# [3] = test system: HBV DNA; experiment: Plasma HBV DNA in treatment naïve chronic hepatitis B patients; assay type: in vivo, hepatitis B virus; conditions: for HBV DNA Day 29 Mean Change from Baseline: N 8; for mean reduction in plasma HBV DNA levels from baseline: after 28 days
# Excerpt: Serum HBV DNA quantitation can be performed according to methods known in the art, for example, using the polymerase chain reaction (PCR)-based assay COBAS® TAQMAN® HBV Test v2.0 (Roche Diagnostics), which has been validated to quantify HBV DNA from serum samples for diverse HBV genotypes (A-H) including pre-core mutant HBV strains, with a reported lower limit of detection of 35 IU/mL and a linear dynamic range of quantitation of 1.7×10^2 to 8.5×10^8 IU/mL IU/mL, using the WHO pooled serum reference standard for quantitation.
# In part 2 of this study (FIG. 1, sessions 8-9), the objective was to evaluate the safety, PK, and antiviral activity of Compound A in treatment naïve, chronic hepatitis B patients over a 28-day treatment period. The patient criteria were: • HBeAg-positive or negative • Plasma HBV DNA>2.0 log 10 IU/mL • ALT/AST<2.5×ULN • METAVIR stage<F3. 1.1 Patient Baseline Characteristics
# HBV DNA was assessed for each patient weekly during this study (see FIG. 3). A mean reduction in plasma HBV DNA levels of 2.16 (±0.49 SD) log10 IU/mL (25 mg Compound A) and 2.89 (±0.48 SD) log10 IU/mL (75 mg Compound A) from baseline was observed after 28 days. Three patients dosed with 75 mg QD achieved HBV DNA below the level of quantification of the HBV DNA assay while none in the 25 mg Compound A group achieved this. A more pronounced and consistent decline in HBV DNA was observed across patients in the 75 mg group compared with the 25 mg group.
# [4] = 150 mg, 6 × 25 mg, Fasting, Treatment B
# [5] = 150 mg, 6 × 25 mg, Fasting, Treatment B (Reference)
# [6] = 150 mg, 6 × 25 mg, Fed, Treatment A
# [7] = 300 mg, 3 × 100 mg, Fasting, Treatment C
# [8] = 300 mg, 3 × 100 mg, Fasting, Treatment C (Test)
# [9] = Treatment A (fed) vs Treatment B (fasted), 150 mg
# [10] = Treatment C (3 × 100 mg) vs Treatment B (6 × 25 mg), fasting
structure (smiles),measurement,setting,value
C[C@H](NS(=O)(=O)c1cc(C(=O)Nc2ccc(F)c(C#N)c2)n(C)c1)C(F)(F)F [Compound A],Amylase Increased (most common AEs),[1]; 25 mg (100 mg Day 1),2 (25)** n (%)
same,"At least one AE (on-treatment, 28 days)",[1]; 25 mg (100 mg Day 1),5 n (%) and 5 (63) n (%)
same,Headache (most common AEs),[1]; 25 mg (100 mg Day 1),2 (25) n (%)
same,Worst Grade 1 AEs,[1]; 25 mg (100 mg Day 1),3 (38) n (%)
same,Worst Grade 2 AEs,[1]; 25 mg (100 mg Day 1),1 (13) n (%)
same,Worst Grade 3 AEs,[1]; 25 mg (100 mg Day 1),1 (13) n (%)
same,ECG changes and vital sign abnormalities,"[1]; 25 mg and 75 mg, 28 days",no patients showed clinically significant ECG changes or persistent/worsening vital sign abnormalities
same,"serious AEs, discontinuations, dose-limiting toxicities","[1]; 25 mg and 75 mg, 28 days","no serious adverse events (SAES) or adverse events (AEs) of clinical concern and no treatment discontinuations; also recorded: no serious AEs, no discontinuations due to AEs, and no dose-limiting toxicities"
same,treatment-emergent Grade 3 or 4 laboratory abnormalities,"[1]; 25 mg and 75 mg, 28 days","No treatment-emergent Grade 3 or 4 laboratory abnormalities were reported, with the exception of the Grade 3 amylase increase"
same,Amylase Increased (most common AEs),[1]; 75 mg,0 n (%)
same,"At least one AE (on-treatment, 28 days)",[1]; 75 mg,4 n (%) and 4 (50) n (%)
same,Headache (most common AEs),[1]; 75 mg,0 n (%)
same,Worst Grade 1 AEs,[1]; 75 mg,2 (25) n (%)
same,Worst Grade 2 AEs,[1]; 75 mg,1 (13) n (%)
same,Worst Grade 3 AEs,[1]; 75 mg,0 (0)* n (%)
same,patients who experienced at least one AE during treatment,[1]; both Compound A arms pooled (9/16),56%
same,"AUClast, dose normalized to 25 mg (mean)",[2]; [4],29467 ng·h/mL
same,"AUC∞, dose normalized to 25 mg (mean)",[2]; [4],30318 ng·h/mL
same,"Cmax, dose normalized to 25 mg (mean)",[2]; [4],320 ng/mL
same,"AUClast, dose normalized (to 25 mg), Geometric Mean",[2]; [5],27226 ng·h/mL
same,"AUC∞, dose normalized (to 25 mg), Geometric Mean",[2]; [5],28011 ng·h/mL
same,"Cmax, dose normalized (to 25 mg), Geometric Mean",[2]; [5],294 ng/mL
same,"AUClast, dose normalized to 25 mg (mean)",[2]; [6],28502 ng·h/mL
same,"AUC∞, dose normalized to 25 mg (mean)",[2]; [6],29580 ng·h/mL
same,"Cmax, dose normalized to 25 mg (mean)",[2]; [6],257 ng/mL
same,"AUClast, dose normalized to 25 mg (mean)",[2]; [7],30951 ng·h/mL
same,"AUC∞, dose normalized to 25 mg (mean)",[2]; [7],32747 ng·h/mL
same,"Cmax, dose normalized to 25 mg (mean)",[2]; [7],231 ng/mL
same,"AUClast, dose normalized (to 25 mg), Geometric Mean",[2]; [8],30835 ng·h/mL
same,"AUC∞, dose normalized (to 25 mg), Geometric Mean",[2]; [8],32329 ng·h/mL
same,"Cmax, dose normalized (to 25 mg), Geometric Mean",[2]; [8],231 ng/mL
same,AUClast Geometric Mean Ratio,[2]; [9],101.05%
same,AUC∞ Geometric Mean Ratio,[2]; [9],101.91%
same,Cmax Geometric Mean Ratio,[2]; [9],85.8% and 85.84%
same,Cmax lower under fed conditions,[2]; [9],14.2%
same,Mean (range) t½term,"[2]; Treatment A, 150 mg fed",134.3 (65.7-221.6) hours
same,Mean (range) t½term,"[2]; Treatment B, 150 mg fasted",123.9 (72.3-195.7) hours
same,"AUClast, dose normalized, Geometric Mean Ratio",[2]; [10],113.26%
same,"AUC∞, dose normalized, Geometric Mean Ratio",[2]; [10],115.42%
same,"Cmax, dose normalized, Geometric Mean Ratio",[2]; [10],78.4% and 78.44%
same,dose normalized Cmax lower for the 100 mg tablet strength compared to the 25 mg tablet strength,"[2]; Treatment C vs Treatment B, fasted",21.6%
same,Mean (range) t½term,"[2]; Treatment C, 300 mg fasted",161.1 (111.5-257.3) hours
same,AUC(0-t),"[2]; both sexes, human, in vivo, oral, 150 mg, 6 × 25 mg, Fasting, Treatment B (Reference), read-out: AUClast, Geometric Mean",163 µg·h/mL
same,AUC(0-inf),"[2]; both sexes, human, in vivo, oral, 150 mg, 6 × 25 mg, Fasting, Treatment B (Reference), read-out: AUC∞, Geometric Mean",168 µg·h/mL
same,Cmax,"[2]; both sexes, human, in vivo, oral, 150 mg, 6 × 25 mg, Fasting, Treatment B (Reference), read-out: Cmax, Geometric Mean",1770 ng/mL
same,AUC(0-t),"[2]; both sexes, human, in vivo, oral, 150 mg, 6 × 25 mg, Fasting, Treatment B, read-out: AUClast (mean)",177 µg·h/mL
same,AUC(0-inf),"[2]; both sexes, human, in vivo, oral, 150 mg, 6 × 25 mg, Fasting, Treatment B, read-out: AUC∞ (mean)",182 µg·h/mL
same,Cmax,"[2]; both sexes, human, in vivo, oral, 150 mg, 6 × 25 mg, Fasting, Treatment B, read-out: Cmax (mean)",1920 ng/mL
same,Tmax,"[2]; both sexes, human, in vivo, oral, 150 mg, 6 × 25 mg, Fasting, Treatment B",1.75 h
same,Cmax,"[2]; both sexes, human, in vivo, oral, 150 mg, 6 × 25 mg, Fed (Standard Breakfast), Treatment A, read-out: Cmax (mean)",1540 ng/mL
same,AUC(0-t),"[2]; both sexes, human, in vivo, oral, 150 mg, 6 × 25 mg, Fed, Treatment A (Test), read-out: AUClast, Geometric Mean",165 µg·h/mL
same,AUC(0-inf),"[2]; both sexes, human, in vivo, oral, 150 mg, 6 × 25 mg, Fed, Treatment A (Test), read-out: AUC∞, Geometric Mean",171 µg·h/mL
same,Cmax,"[2]; both sexes, human, in vivo, oral, 150 mg, 6 × 25 mg, Fed, Treatment A (Test), read-out: Cmax, Geometric Mean",1520 ng/mL
same,AUC(0-t),"[2]; both sexes, human, in vivo, oral, 150 mg, 6 × 25 mg, Fed, Treatment A, read-out: AUClast (mean)",171 µg·h/mL
same,AUC(0-inf),"[2]; both sexes, human, in vivo, oral, 150 mg, 6 × 25 mg, Fed, Treatment A, read-out: AUC∞ (mean)",177 µg·h/mL
same,Tmax,"[2]; both sexes, human, in vivo, oral, 150 mg, 6 × 25 mg, Fed, Treatment A",4 h
same,AUC(0-t),"[2]; both sexes, human, in vivo, oral, 300 mg, 3 × 100 mg, Fasting, Treatment C, read-out: AUClast (mean)",371 µg·h/mL
same,AUC(0-inf),"[2]; both sexes, human, in vivo, oral, 300 mg, 3 × 100 mg, Fasting, Treatment C, read-out: AUC∞ (mean)",393 µg·h/mL
same,Cmax,"[2]; both sexes, human, in vivo, oral, 300 mg, 3 × 100 mg, Fasting, Treatment C, read-out: Cmax (mean)",2770 ng/mL
same,Tmax,"[2]; both sexes, human, in vivo, oral, 300 mg, 3 × 100 mg, Fasting, Treatment C",3 h
same,clearance,"[2]; both sexes, human, in vivo, oral, over all treatments and individuals, read-out: Clearance (CUF)",7.83 to 25.8 mL/min
same,HBV DNA Day 29 Mean Change from Baseline,[3]; 25 mg QD,−2.16 log10 IU/mL
same,mean reduction in plasma HBV DNA levels from baseline,[3]; 25 mg,2.16 (±0.49 SD) log10 IU/mL and 2.16 (±0.49) log10 IU/mL
same,HBV DNA Day 29 Mean Change from Baseline,[3]; 75 mg QD,−2.89 log10 IU/mL
same,mean reduction in plasma HBV DNA levels from baseline,[3]; 75 mg,2.89 (±0.48 SD) log10 IU/mL and 2.89 (±0.48) log10 IU/mL
